PMC12920294, “Optimizing uPAR-targeting radiopeptides for improved tissue distribution: progress towards radionuclide therapy” (European Journal of Nuclear Medicine and Molecular Imaging, 2025)
Like-named read-outs stand apart in the source and are kept apart here.

How the values were obtained:
[1] = system: HEK-uPAR xenograft-bearing mice; conditions: mouse, in vivo
Description: (§1) HEK-uPAR xenografted mice were injected with the respective radiopeptide (5 MBq, 0.5 nmol/mouse, 100 µL 0.9% NaCl containing 0.05% BSA) and sacrificed at 4 h and 24 h after injection. […] The tissues and organs of interest were collected, weighed and counted for activity using a γ-counter (Wallac Wizard 1480, PerkinElmer). […] The results were presented as the average ± SD of n = 3 mice. The time-activity curves were determined for the uptake of [^177Lu]Lu-DOTA-AE105 and [^177Lu]Lu-uPAR-11 in the blood, HEK-uPAR xenografts, kidneys and liver based on non-decay corrected biodistribution data. For the blood, the initial uptake (t = 0) was set as 50% IA/g assuming a blood volume of 2 mL for CD1 nude mice. The initial uptake value (t = 0) for all other organs and tissues was set as 0% IA/g. […] The area under the curves over 48 h after injection (AUC0h→48 h) was calculated using GraphPad Prism software (version 10.1.1). Statistical analyses were performed by applying a one-way ANOVA test with a Dunnet’s multiple comparison post‐test to compare the data of the new radiopeptides with those of [^177Lu]Lu-DOTA-AE105 and a Tukey’s multiple comparisons post‐test to compare the novel radiopeptides among them. A p-value of < 0.05 was considered a statistically significant difference using GraphPad Prism software (version 10.1.1).

physchem = assay type: physicochemical; conditions: pH 7.4
Description: The ^177Lu-labeled peptides (50 MBq/nmol) were incubated in mouse or human blood plasma (10 MBq/200 µL) over an incubation period of 24 h at 37 °C. Aliquots and control samples of the radiopeptides diluted in saline were analyzed after 1 h, 4 h and 24 h using thin layer chromatography (TLC) as previously reported (Supplementary Material). The distribution coefficients (logD values) of the ^177Lu-labeled peptides (50 MBq/nmol) were determined using a shake-flask method according to a previously published procedure (Supplementary Material). Methods: The radiopeptides (50 MBq/nmol) were diluted in phosphate buffered saline (PBS) pH 7.4 to obtain an activity concentration of 10 MBq/500 µL. A sample of this radiopeptide solution (~0.5 MBq, 25 µL, 0.01 nmol) was added to a mixture of PBS pH 7.4 (1475 µL) and n-octanol (1500 µL). The vials were vortexed vigorously for 1 min followed by centrifugation (560 rcf, 25°C, 6 min) for phase separation. Aliquots were taken from each phase and measured in a γ-counter (Wallac Wizard 1480, PerkinElmer). The distribution coefficients were calculated as the logarithmic value of the ratio of counts per minute (cpm) measured in the n-octanol phase relative to the cpm measured in the PBS phase. The results were listed as average ± SD of the data obtained from 3 independent experiments, each performed with five replicates.

[2] = assay type: in vitro ADME; conditions: 1 µM
Description: The ^177Lu-labeled peptides (50 MBq/nmol) were incubated in mouse or human blood plasma (10 MBq/200 µL) over an incubation period of 24 h at 37 °C. Aliquots and control samples of the radiopeptides diluted in saline were analyzed after 1 h, 4 h and 24 h using thin layer chromatography (TLC) as previously reported (Supplementary Material). The distribution coefficients (logD values) of the ^177Lu-labeled peptides (50 MBq/nmol) were determined using a shake-flask method according to a previously published procedure (Supplementary Material).
Methods: A sample of each radiopeptide (50 MBq/nmol) was added to mouse blood plasma (Lot: 32321, Rockland Immunochemicals Inc., USA) or to human blood plasma (Stiftung Blutspende SRK Aargau-Solothurn, Switzerland) to obtain an activity concentration of 10 MBq/200 µL. The test samples were incubated at 37 °C for up to 24 h. Control samples referred to the radiopeptides which were instead diluted in saline at an activity concentration of 10 MBq/200 µL. Aliquots of each sample (2 µL, ~100 kBq) were taken after 1 h, 4 h and 24 h and investigated by means of thin layer chromatography (TLC). The employed method involved reversed-phase TLC plates (MERCK Analytical Chromatography, TLC Silica gel 60 RP-18 F254s) as stationary phase and ACN/citrate buffer (3:7; v/v; pH 5.5) as mobile phase. After the eluent reached the front line, the TLC plates were dried and exposed to a phosphor screen (Super resolution screen PSR10450013, PerkinElmer) for 1 min. The respective screen was developed using a storage phosphor system (Cyclone Plus, PerkinElmer) and analyzed using the OptiQuant Software (version 5.0, Bright Instrument Co Ltd., PerkinElmer).

in vivo = conditions: CD1 nude, mouse, 0.5 nmol/mouse, total radioactivity
Description: as §1

For `Cc1ccc(CCCC(=O)NCCOCCOCCOCCOCCC(=O)NCCCC[C@H](NC(=O)CN2CCN(CC(=O)O)CCN(CC(=O)O)CCN(CC(=O)O)CC2)C(=O)N[C@@H](CC(=O)O)C(=O)N[C@@H](CC2CCCCC2)C(=O)N[C@@H](Cc2ccccc2)C(=O)N[C@H](CO)C(=O)N[C@H](CCCNC(=N)N)C(=O)N[C@@H](Cc2ccc(O)cc2)C(=O)N[C@@H](CC(C)C)C(=O)N[C@@H](Cc2c[nH]c3ccccc23)C(=O)N[C@@H](CO)C(N)=O)cc1` [[^177Lu]Lu-uPAR-11, metal not drawn], which “AUC0h→48h, HEK-uPAR xenograft” value [1] is on record?
The value was 410 ± 21 % IA/g*h.

And the “AUC0h→48h, blood” value [1]?
Its value is 109 ± 6 % IA/g*h.

What about the “AUC0h→48h, kidneys” value [1] of the same molecule?
The value was 103 ± 5 % IA/g*h.

And the “AUC0h→48h, liver” value [1]?
Its value is 38 ± 2 % IA/g*h.

What about the “Blood AUC0h→48h relative to [177Lu]Lu-DOTA-AE105” value [1] of the same molecule?
The value was 3.9 fold.

What about the “HEK-uPAR xenograft AUC0h→48h relative to [177Lu]Lu-DOTA-AE105” value [1] of the same molecule?
Its value is 16 fold.

And the “Kidneys AUC0h→48h relative to [177Lu]Lu-DOTA-AE105” value [1]?
Its value is ~ 1.7 fold.

What about the “Liver AUC0h→48h relative to [177Lu]Lu-DOTA-AE105” value [1] of the same molecule?
Its value is ~ 5.5 fold.

What about the “Xenograft-to-blood AUC0h→48h ratio relative to [177Lu]Lu-DOTA-AE105” value [1] of the same molecule?
Its value is 4.2 fold.

And the logD (physchem)?
Its logD is -0.26 ± 0.09.

What about the “Human blood plasma stability, intact radiopeptide” value (“Human blood plasma stability” below) ([2]; 1 h) of the same molecule?
Its value is 99 ± 1%.

And the “Mouse blood plasma stability, intact radiopeptide” value (from here on “Mouse blood plasma stability”) ([2]; 1 h)?
Its value is 99 ± 1%.

What about the “Human blood plasma stability” value ([2]; 4 h) of the same molecule?
Its value is 99 ± 1%.

And the “Mouse blood plasma stability” value ([2]; 4 h)?
Its value is 99 ± 1%.

What about the “Human blood plasma stability” value ([2]; 24 h) of the same molecule?
The value was 95 ± 1%.

And the “Mouse blood plasma stability” value ([2]; 24 h)?
The value was 95 ± 1%.

What about the tissue uptake at 1 h (in vivo; Blood uptake) of the same molecule?
Its tissue uptake at 1 h is 13 ± 2 %ID/g.

What about the tissue uptake at 4 h (in vivo; Blood uptake) of the same molecule?
The tissue uptake at 4 h was 5 ± 0.6 %ID/g.

What about the tissue uptake at 24 h (in vivo; Blood uptake) of the same molecule?
Its tissue uptake at 24 h is < 0.03 %ID/g.

And the tissue uptake at 48 h (in vivo; Blood uptake)?
The tissue uptake at 48 h was < 0.03 %ID/g.

And the tissue uptake at 1 h (in vivo; Bone uptake)?
The tissue uptake at 1 h was 1.7 ± 0.4 %ID/g.

And the tissue uptake at 4 h (in vivo; Bone uptake)?
Its tissue uptake at 4 h is 0.73 ± 0.06 %ID/g.

What about the tissue uptake at 24 h (in vivo; Bone uptake) of the same molecule?
Its tissue uptake at 24 h is 0.19 ± 0.03 %ID/g.

And the tissue uptake at 48 h (in vivo; Bone uptake)?
Its tissue uptake at 48 h is 0.11 ± 0.02 %ID/g.

And the tissue uptake at 1 h (in vivo; Brain uptake)?
The tissue uptake at 1 h was 0.28 ± 0.03 %ID/g.

What about the tissue uptake at 4 h (in vivo; Brain uptake) of the same molecule?
The tissue uptake at 4 h was 0.12 ± 0.23 %ID/g.

And the tissue uptake at 24 h (in vivo; Brain uptake)?
The tissue uptake at 24 h was < 0.03 %ID/g.

What about the tissue uptake at 48 h (in vivo; Brain uptake) of the same molecule?
Its tissue uptake at 48 h is < 0.03 %ID/g.

What about the tissue uptake at 1 h (in vivo; HEK-uPAR xenograft uptake) of the same molecule?
The tissue uptake at 1 h was 13 ± 2 %ID/g.

What about the tissue uptake at 4 h (in vivo; HEK-uPAR xenograft uptake) of the same molecule?
Its tissue uptake at 4 h is 16 ± 2 %ID/g.

And the tissue uptake at 24 h (in vivo; HEK-uPAR xenograft uptake)?
The tissue uptake at 24 h was 7.9 ± 0.9 %ID/g.

And the tissue uptake at 48 h (in vivo; HEK-uPAR xenograft uptake)?
The tissue uptake at 48 h was 5.3 ± 0.7 %ID/g.

What about the tissue uptake at 1 h (in vivo; Heart uptake) of the same molecule?
The tissue uptake at 1 h was 4.9 ± 0.3 %ID/g.

And the tissue uptake at 4 h (in vivo; Heart uptake)?
Its tissue uptake at 4 h is 1.8 ± 0.2 %ID/g.

And the tissue uptake at 24 h (in vivo; Heart uptake)?
Its tissue uptake at 24 h is 0.12 ± 0.02 %ID/g.

And the tissue uptake at 48 h (in vivo; Heart uptake)?
The tissue uptake at 48 h was 0.08 ± 0.01 %ID/g.

And the tissue uptake at 1 h (in vivo; Intestines uptake)?
Its tissue uptake at 1 h is 1.8 ± 0.2 %ID/g.

And the tissue uptake at 4 h (in vivo; Intestines uptake)?
Its tissue uptake at 4 h is 0.93 ± 0.11 %ID/g.

And the tissue uptake at 24 h (in vivo; Intestines uptake)?
The tissue uptake at 24 h was 0.19 ± 0.01 %ID/g.

What about the tissue uptake at 48 h (in vivo; Intestines uptake) of the same molecule?
The tissue uptake at 48 h was 0.14 ± 0.03 %ID/g.

And the tissue uptake at 1 h (in vivo; Kidneys uptake)?
The tissue uptake at 1 h was 6.8 ± 0.9 %ID/g.

And the tissue uptake at 4 h (in vivo; Kidneys uptake)?
The tissue uptake at 4 h was 4 ± 0.4 %ID/g.

And the tissue uptake at 24 h (in vivo; Kidneys uptake)?
Its tissue uptake at 24 h is 1.3 to 1.7 %ID/g.

And the tissue uptake at 48 h (in vivo; Kidneys uptake)?
Its tissue uptake at 48 h is 1.1 ± 0.1 %ID/g.

What about the tissue uptake at 1 h (in vivo; Liver uptake) of the same molecule?
The tissue uptake at 1 h was 4.5 ± 0.3 %ID/g.

What about the tissue uptake at 4 h (in vivo; Liver uptake) of the same molecule?
Its tissue uptake at 4 h is 1.8 ± 0.2 %ID/g.

What about the tissue uptake at 24 h (in vivo; Liver uptake) of the same molecule?
Its tissue uptake at 24 h is 0.33 ± 0.03 %ID/g.

And the tissue uptake at 48 h (in vivo; Liver uptake)?
The tissue uptake at 48 h was 0.25 ± 0.02 %ID/g.

What about the tissue uptake at 1 h (in vivo; Lung uptake) of the same molecule?
The tissue uptake at 1 h was 7 ± 1.3 %ID/g.

And the tissue uptake at 4 h (in vivo; Lung uptake)?
The tissue uptake at 4 h was 3.1 ± 0.2 %ID/g.

And the tissue uptake at 24 h (in vivo; Lung uptake)?
The tissue uptake at 24 h was 0.29 ± 0.08 %ID/g.

And the tissue uptake at 48 h (in vivo; Lung uptake)?
The tissue uptake at 48 h was 0.17 ± 0.02 %ID/g.

And the tissue uptake at 1 h (in vivo; Muscle uptake)?
Its tissue uptake at 1 h is 1.4 ± 0.3 %ID/g.

And the tissue uptake at 4 h (in vivo; Muscle uptake)?
Its tissue uptake at 4 h is 0.63 ± 0.09 %ID/g.

And the tissue uptake at 24 h (in vivo; Muscle uptake)?
Its tissue uptake at 24 h is 0.05 %ID/g.

And the tissue uptake at 48 h (in vivo; Muscle uptake)?
Its tissue uptake at 48 h is 0.04 ± 0.01 %ID/g.

What about the tissue uptake at 1 h (in vivo; Pancreas uptake) of the same molecule?
Its tissue uptake at 1 h is 1.7 ± 0.2 %ID/g.

What about the tissue uptake at 4 h (in vivo; Pancreas uptake) of the same molecule?
The tissue uptake at 4 h was 0.69 ± 0.05 %ID/g.

And the tissue uptake at 24 h (in vivo; Pancreas uptake)?
Its tissue uptake at 24 h is 0.09 ± 0.02 %ID/g.

What about the tissue uptake at 48 h (in vivo; Pancreas uptake) of the same molecule?
Its tissue uptake at 48 h is 0.07 ± 0.02 %ID/g.

And the tissue uptake at 1 h (in vivo; Salivary glands uptake)?
Its tissue uptake at 1 h is 2.9 ± 0.5 %ID/g.

And the tissue uptake at 4 h (in vivo; Salivary glands uptake)?
Its tissue uptake at 4 h is 1.3 ± 0.2 %ID/g.

What about the tissue uptake at 24 h (in vivo; Salivary glands uptake) of the same molecule?
The tissue uptake at 24 h was 0.17 ± 0.02 %ID/g.

And the tissue uptake at 48 h (in vivo; Salivary glands uptake)?
The tissue uptake at 48 h was 0.18 ± 0.04 %ID/g.

And the tissue uptake at 1 h (in vivo; Spleen uptake)?
The tissue uptake at 1 h was 2.2 ± 0.3 %ID/g.

And the tissue uptake at 4 h (in vivo; Spleen uptake)?
The tissue uptake at 4 h was 1.1 ± 0.1 %ID/g.

What about the tissue uptake at 24 h (in vivo; Spleen uptake) of the same molecule?
The tissue uptake at 24 h was 0.49 ± 0.05 %ID/g.

What about the tissue uptake at 48 h (in vivo; Spleen uptake) of the same molecule?
The tissue uptake at 48 h was 0.37 ± 0.05 %ID/g.

And the tissue uptake at 1 h (in vivo; Stomach uptake)?
Its tissue uptake at 1 h is 1.8 ± 0.5 %ID/g.

And the tissue uptake at 4 h (in vivo; Stomach uptake)?
Its tissue uptake at 4 h is 0.75 ± 0.19 %ID/g.

And the tissue uptake at 24 h (in vivo; Stomach uptake)?
The tissue uptake at 24 h was 0.12 ± 0.01 %ID/g.

And the tissue uptake at 48 h (in vivo; Stomach uptake)?
The tissue uptake at 48 h was 0.09 %ID/g.
